Values of other authors as cited in publication PMC5732038 (ACS chemical biology, 2017).

System: methicillin resistant Staphylococcus aureus (MRSA)
Settings: several Gram-positive bacteria including MRSA

## Sublancin
  antimicrobial activity: antimicrobial activity
